This note sets out measurements from ChEMBL document CHEMBL5053512, “Discovery and Preclinical Pharmacology of an Oral Bromodomain and Extra-Terminal (BET) Inhibitor Using Scaffold-Hopping and Structure-Guided Drug Design” (J Med Chem, 2021).

The nature of series [1]: Inhibition of c-MYC expression in human JJN3R cells measured after 4 hrs. Format: functional, cell-based. Conditions: JJN-3R.
Series [2] deals with Bromodomain-containing protein 4 (Homo sapiens, UniProt O60885). Kind of series: Inhibition of human BRD4 (1 to 477 residues) measured after 60 mins by TR-FRET assay.
The nature of series [3]: Metabolic stability in human liver microsomes assessed as parent compound remaining at 0.5 uM after 10 mins. Format: ADME, Microsome. The settings on record: read-out: Stability.
A short description of series [4]: Metabolic stability in mouse liver microsomes assessed as parent compound remaining at 0.5 uM after 10 mins. In kind it is ADME, Microsome. The settings on record: read-out: Stability.
A short description of series [5]: Permeability coefficient of the compound by PAMPA. In kind it is ADME. Conditions: read-out: permeability.
The nature of series [6]: Antitumour activity against human JJN3R cells measured after 72 hrs by MTS assay. In kind it is functional, cell-based. Conditions: JJN-3R.
Series [7] can be described thus: Cmax in mouse at 30 mg/kg, po. In kind it is ADME, organism-based. Set-up: dose 30 mg/kg, route po. The settings on record: in vivo.
Series [8] is described as follows: AUC (0 to 7 hrs) in mouse at 30 mg/kg, po. Format: ADME, organism-based. Set-up: time < 7 hr, dose 30 mg/kg, route po. The settings on record: in vivo.
Series [9] is described as follows: Efflux ratio of permeability in human Caco-2 cells. In kind it is ADME, cell-based.
The target in series [10] is Bromodomain-containing protein 2 (Homo sapiens, UniProt P25440). Description: Inhibition of human BRD2 measured by TR-FRET assay.
In series [11] the target is Voltage-gated inwardly rectifying potassium channel KCNH2 (Homo sapiens, UniProt Q12809). Kind of series: Inhibition of human ERG by flux assay.
The next series addresses Cytochrome P450 1A2 (Homo sapiens, UniProt P05177). Description: Inhibition of CYP1A2 (unknown origin). Format: ADME.
The next series has as its target Cytochrome P450 2D6 (Homo sapiens, UniProt P10635). Kind of series: Inhibition of CYP2D6 (unknown origin). Format: ADME.
In a further series the target is Cytochrome P450 2C19 (Homo sapiens, UniProt P33261). Kind of series: Inhibition of CYP2C19 (unknown origin). Format: ADME.
Series [12] in a line: Permeability coefficient across apical to basolateral side in human Caco-2 cells. Format: ADME, cell-based. Conditions: read-out: permeability.
A further series addresses Cytochrome P450 2C9 (Homo sapiens, UniProt P11712). Description: Inhibition of CYP2C9 (unknown origin). In kind it is ADME.
A short description of series [13]: Permeability coefficient across basolateral to apical side in human Caco-2 cells. Format: ADME, cell-based. Conditions: read-out: permeability.
The target of another series is Cytochrome P450 3A4 (Homo sapiens, UniProt P08684). Description: Inhibition of CYP3A4 (unknown origin). In kind it is ADME.
Series [14] addresses Bromodomain-containing protein 3 (Homo sapiens, UniProt Q15059). Description: Inhibition of human BRD3 measured by TR-FRET assay.

Sequence of Bromodomain-containing protein 3 (Q15059 whole entry): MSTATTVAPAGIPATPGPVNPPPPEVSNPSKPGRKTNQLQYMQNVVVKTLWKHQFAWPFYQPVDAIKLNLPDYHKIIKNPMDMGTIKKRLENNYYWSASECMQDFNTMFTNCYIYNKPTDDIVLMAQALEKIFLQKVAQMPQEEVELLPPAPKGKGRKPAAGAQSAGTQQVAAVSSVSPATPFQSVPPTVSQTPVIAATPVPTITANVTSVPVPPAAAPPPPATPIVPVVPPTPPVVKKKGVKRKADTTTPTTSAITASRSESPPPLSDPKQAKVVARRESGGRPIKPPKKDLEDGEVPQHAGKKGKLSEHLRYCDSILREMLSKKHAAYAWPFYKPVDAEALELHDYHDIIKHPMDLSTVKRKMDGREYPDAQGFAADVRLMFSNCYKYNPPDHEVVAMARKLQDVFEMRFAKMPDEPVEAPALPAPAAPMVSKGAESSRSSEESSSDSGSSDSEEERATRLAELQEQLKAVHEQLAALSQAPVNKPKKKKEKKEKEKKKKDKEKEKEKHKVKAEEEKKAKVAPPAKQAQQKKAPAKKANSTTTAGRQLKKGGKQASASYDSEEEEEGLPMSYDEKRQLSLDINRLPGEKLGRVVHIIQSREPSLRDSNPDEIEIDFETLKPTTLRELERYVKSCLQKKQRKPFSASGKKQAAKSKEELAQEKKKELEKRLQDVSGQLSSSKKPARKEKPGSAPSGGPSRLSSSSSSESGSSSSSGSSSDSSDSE
Sequence of Cytochrome P450 3A4 (P08684 whole entry): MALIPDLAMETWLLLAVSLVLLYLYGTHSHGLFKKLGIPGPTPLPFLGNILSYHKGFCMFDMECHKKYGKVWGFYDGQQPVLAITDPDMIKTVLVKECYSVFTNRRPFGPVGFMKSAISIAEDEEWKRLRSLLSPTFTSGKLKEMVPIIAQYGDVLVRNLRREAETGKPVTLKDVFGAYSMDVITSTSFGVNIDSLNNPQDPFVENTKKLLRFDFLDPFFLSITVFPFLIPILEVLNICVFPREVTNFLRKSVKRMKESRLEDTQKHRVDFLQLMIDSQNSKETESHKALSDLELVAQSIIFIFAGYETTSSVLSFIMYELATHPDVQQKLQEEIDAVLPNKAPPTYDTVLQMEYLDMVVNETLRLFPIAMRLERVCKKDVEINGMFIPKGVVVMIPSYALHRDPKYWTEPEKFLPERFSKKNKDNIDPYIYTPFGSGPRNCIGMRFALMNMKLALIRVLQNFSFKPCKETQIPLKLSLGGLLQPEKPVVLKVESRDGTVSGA
Sequence of Cytochrome P450 2C9 (P11712 whole entry): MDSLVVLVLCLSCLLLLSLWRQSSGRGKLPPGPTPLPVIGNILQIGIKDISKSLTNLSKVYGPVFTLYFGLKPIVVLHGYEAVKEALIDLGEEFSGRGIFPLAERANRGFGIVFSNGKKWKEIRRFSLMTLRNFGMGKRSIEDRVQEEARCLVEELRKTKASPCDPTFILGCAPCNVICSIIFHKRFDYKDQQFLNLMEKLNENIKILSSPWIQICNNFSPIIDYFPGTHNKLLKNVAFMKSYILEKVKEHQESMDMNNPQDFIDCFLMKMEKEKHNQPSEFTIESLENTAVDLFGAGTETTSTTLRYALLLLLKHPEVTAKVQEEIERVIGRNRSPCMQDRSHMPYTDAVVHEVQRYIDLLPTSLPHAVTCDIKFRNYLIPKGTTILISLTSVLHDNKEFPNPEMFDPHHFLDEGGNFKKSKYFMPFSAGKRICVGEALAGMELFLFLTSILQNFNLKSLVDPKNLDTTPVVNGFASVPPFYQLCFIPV
Sequence of Bromodomain-containing protein 2 (P25440 whole entry): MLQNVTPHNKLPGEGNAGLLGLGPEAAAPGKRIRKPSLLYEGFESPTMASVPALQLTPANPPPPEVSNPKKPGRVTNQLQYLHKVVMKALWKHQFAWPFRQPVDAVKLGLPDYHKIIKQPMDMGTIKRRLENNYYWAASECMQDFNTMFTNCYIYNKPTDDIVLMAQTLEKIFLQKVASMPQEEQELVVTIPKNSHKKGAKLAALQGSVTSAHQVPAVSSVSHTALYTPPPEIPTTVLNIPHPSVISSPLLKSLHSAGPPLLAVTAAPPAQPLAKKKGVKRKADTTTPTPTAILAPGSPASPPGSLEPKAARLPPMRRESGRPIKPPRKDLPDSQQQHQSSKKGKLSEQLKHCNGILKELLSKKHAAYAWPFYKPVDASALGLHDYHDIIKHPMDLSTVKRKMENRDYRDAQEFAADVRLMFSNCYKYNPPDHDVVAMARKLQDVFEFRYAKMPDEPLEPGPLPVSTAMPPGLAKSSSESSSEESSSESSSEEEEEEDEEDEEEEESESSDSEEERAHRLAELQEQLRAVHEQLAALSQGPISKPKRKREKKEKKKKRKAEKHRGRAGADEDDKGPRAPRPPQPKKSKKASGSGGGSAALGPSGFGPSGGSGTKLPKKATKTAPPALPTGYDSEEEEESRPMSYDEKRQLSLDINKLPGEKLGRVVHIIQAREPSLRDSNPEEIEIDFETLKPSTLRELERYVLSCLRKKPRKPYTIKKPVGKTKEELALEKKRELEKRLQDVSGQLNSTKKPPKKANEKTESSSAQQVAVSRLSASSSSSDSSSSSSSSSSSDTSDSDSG
Sequence of Voltage-gated inwardly rectifying potassium channel KCNH2 (Q12809 whole entry): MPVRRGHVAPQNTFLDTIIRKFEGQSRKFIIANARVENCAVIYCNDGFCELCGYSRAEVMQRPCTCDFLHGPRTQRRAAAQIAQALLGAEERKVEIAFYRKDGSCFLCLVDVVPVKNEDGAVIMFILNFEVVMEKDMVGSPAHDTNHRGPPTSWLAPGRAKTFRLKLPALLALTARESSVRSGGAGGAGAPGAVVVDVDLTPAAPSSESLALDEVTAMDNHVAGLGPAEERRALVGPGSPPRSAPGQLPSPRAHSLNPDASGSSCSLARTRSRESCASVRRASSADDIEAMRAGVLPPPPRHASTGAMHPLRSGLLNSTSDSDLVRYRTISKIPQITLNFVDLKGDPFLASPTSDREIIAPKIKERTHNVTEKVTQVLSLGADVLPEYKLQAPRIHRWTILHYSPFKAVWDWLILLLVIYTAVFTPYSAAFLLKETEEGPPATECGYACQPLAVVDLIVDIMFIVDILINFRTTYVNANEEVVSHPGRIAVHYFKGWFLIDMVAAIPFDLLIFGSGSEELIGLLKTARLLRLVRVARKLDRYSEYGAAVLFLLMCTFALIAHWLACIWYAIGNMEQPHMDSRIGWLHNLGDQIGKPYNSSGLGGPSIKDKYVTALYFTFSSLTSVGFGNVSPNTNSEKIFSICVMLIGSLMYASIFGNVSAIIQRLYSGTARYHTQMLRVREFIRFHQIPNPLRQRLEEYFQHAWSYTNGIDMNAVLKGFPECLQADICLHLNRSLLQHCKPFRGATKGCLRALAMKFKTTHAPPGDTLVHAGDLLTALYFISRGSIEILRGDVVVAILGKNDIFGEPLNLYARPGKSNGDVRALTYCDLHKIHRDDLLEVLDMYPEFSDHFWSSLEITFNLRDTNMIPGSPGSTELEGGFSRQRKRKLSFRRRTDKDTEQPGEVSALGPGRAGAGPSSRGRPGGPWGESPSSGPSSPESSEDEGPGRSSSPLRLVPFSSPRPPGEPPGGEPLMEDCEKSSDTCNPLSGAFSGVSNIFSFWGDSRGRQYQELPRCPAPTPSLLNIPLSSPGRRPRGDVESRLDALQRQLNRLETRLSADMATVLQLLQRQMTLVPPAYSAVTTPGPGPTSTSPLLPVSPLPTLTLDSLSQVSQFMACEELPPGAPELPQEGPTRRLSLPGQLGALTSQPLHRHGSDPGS
Sequence of Cytochrome P450 2D6 (P10635 whole entry): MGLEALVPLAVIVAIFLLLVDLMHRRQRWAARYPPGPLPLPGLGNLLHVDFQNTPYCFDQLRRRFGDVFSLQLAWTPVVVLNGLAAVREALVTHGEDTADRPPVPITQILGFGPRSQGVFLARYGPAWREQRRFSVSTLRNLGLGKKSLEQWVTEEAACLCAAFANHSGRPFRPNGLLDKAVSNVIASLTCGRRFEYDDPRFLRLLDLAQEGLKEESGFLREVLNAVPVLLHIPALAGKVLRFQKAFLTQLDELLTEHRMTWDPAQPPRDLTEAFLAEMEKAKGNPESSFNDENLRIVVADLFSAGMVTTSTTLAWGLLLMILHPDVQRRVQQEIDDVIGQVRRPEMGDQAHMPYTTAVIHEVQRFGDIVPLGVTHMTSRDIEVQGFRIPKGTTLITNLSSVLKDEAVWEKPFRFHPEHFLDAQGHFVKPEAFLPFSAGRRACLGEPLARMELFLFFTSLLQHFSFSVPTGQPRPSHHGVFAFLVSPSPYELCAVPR
Sequence of Cytochrome P450 1A2 (P05177 whole entry): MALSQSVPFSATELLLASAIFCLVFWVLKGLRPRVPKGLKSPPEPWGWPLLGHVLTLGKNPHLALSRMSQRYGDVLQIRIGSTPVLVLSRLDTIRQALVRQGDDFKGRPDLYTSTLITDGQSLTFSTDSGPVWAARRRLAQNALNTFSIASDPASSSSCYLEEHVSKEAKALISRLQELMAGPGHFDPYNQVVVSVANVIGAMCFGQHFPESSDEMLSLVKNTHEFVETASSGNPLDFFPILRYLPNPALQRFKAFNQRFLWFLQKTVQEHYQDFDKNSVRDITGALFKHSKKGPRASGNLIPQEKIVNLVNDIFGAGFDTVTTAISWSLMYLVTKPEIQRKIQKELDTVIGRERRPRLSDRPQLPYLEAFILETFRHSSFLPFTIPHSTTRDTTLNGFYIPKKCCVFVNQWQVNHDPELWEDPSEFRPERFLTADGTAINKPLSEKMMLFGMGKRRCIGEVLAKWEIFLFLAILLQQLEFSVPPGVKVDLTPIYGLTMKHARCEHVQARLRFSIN

As for `Cc1noc(C)c1-c1cc(C(N)=O)c2c3ccc(C(C)(C)O)cc3n(C(c3ccccc3)c3ccccc3)c2c1`, the IC50 in series [1] came to 0.0039 µM; in [2], 0.0015 µM; in series [6] it was 0.011 µM. Besides, the values for the remaining at 10 min, 0.5 µM in [3] and in series [4] were 13% and 26%, respectively. The Papp in series [5] was determined as 68.2 ×10⁻⁶ cm/s.

As for `Cc1noc(C)c1-c1cc(C(N)=O)c2c3cc(C(=O)N4C[C@@H](C)O[C@@H](C)C4)ccc3n(CC3CC3)c2c1`, the IC50 in series [1] turned out to be 0.259 µM; in [2], 0.069 µM; in [6], 0.422 µM.

On to `Cc1n[nH]c(C)c1-c1cc(C(N)=O)c2c(c1)c1ccc(C(=O)N3C[C@@H](C)O[C@@H](C)C3)cc1n2CC1CC1`, for which the IC50 in series [1] worked out at 1.24 µM; in series [2] it was 0.53 µM; in series [6], 7.6 µM.

With `Cc1nocc1-c1cc(C(N)=O)c2c(c1)c1ccc(C(=O)N3C[C@@H](C)O[C@@H](C)C3)cc1n2CC1CC1`, the values for the IC50 in [1], in series [2] and in series [6] were 0.268 µM, 0.131 µM and 2.96 µM, respectively.

In the case of `Cc1noc(C)c1-c1cc(C(N)=O)c2c(c1)c1ccc(C(=O)N3CCOCC3)cc1n2CC1CC1`, the IC50 in series [1] was found to be 0.093 µM; in series [2], 0.039 µM; in series [6] it was 0.414 µM.

As for `Cc1noc(C)c1-c1cc(C(N)=O)c2c3ccc(C(C)(C)O)cc3n(CC3CCOCC3)c2c1`, the IC50 in series [1] turned out to be 0.023 µM; in series [2], 0.0095 µM; in series [6], 0.128 µM. In addition, the figures for the remaining at 10 min, 0.5 µM in series [3] and in series [4] were 75% and 55%, respectively. Besides, in series [5], the Papp was found to be 40.2 ×10⁻⁶ cm/s.

Regarding `Cc1noc(C)c1-c1cc(C(N)=O)c2c3ccc(C(C)(C)O)cc3n([C@@H](c3ccccc3)C3CCOCC3)c2c1`, the half-inhibitory concentration (IC50) turned out to be 0.01 µM in series [1], 0.0054 µM in series [2] and 0.046 µM in [6]. For the same molecule, the figures for the remaining at 10 min, 0.5 µM in [3] and in series [4] were 24% and 0%, respectively. In series [5], the Papp amounted to 58.4 ×10⁻⁶ cm/s.

In the case of `Cc1noc(C)c1-c1cc(C(N)=O)c2c3ccc(C(C)(C)O)cc3n([C@H](c3ccc(F)cc3)C3CCOCC3)c2c1`, the concentration in [7] peaked (Cmax) at 0.9 µM. The figures for the IC50 in series [1], in series [2] and in [6] were 0.0004 µM, 0.0019 µM and 0.0031 µM, respectively. Besides, the remaining at 10 min, 0.5 µM in series [3] was found to be 52%; in series [4], 33%. This molecule also yielded an AUC(0-t) at 7 h in series [8] of 4.3 µM·h. In addition, the Papp in [5] is 70.2 ×10⁻⁶ cm/s. Also, the efflux ratio in series [9] was 6.1.

Consider `Cc1noc(C)c1-c1cnc2c3ccc(C(C)(C)O)cc3n([C@H](c3ccccc3)C3CCOCC3)c2c1`, for which the IC50 was 0.0017 µM in series [10]; 51 µM in series [11]; 0.0015 µM in [1]; 0.0019 µM in [2]; greater than 20 µM on Cytochrome P450 1A2; greater than 20 µM on Cytochrome P450 2D6. The IC50 is 1.5 µM against Cytochrome P450 2C19; 4.1 µM against Cytochrome P450 2C9; 0.0084 µM in series [6]; greater than 20 µM on Cytochrome P450 3A4; 0.0019 µM in series [14]. Moreover, in series [7], the concentration peaked (Cmax) at 9.2 µM. Further, the remaining at 10 min, 0.5 µM stood at 54% in series [3] and 42% in series [4]. Besides, the AUC(0-t) at 7 h in series [8] was determined as 45.7 µM·h. Besides, the Papp in series [5] worked out at 98.4 ×10⁻⁶ cm/s. In addition, the Papp A→B in series [12] worked out at 26.3 ×10⁻⁶ cm/s. In addition, the Papp B→A in [13] stood at 22.9 ×10⁻⁶ cm/s. The efflux ratio in [9] is 0.9.

For `Cc1oncc1-c1cc(C(N)=O)c2c(c1)c1ccc(C(=O)N3C[C@@H](C)O[C@@H](C)C3)cc1n2CC1CC1`, the IC50 amounted to 0.645 µM in [1], 0.292 µM in series [2] and 3.53 µM in series [6].

As to `Cc1nnn(C)c1-c1cc(C(N)=O)c2c(c1)c1ccc(C(=O)N3C[C@@H](C)O[C@@H](C)C3)cc1n2CC1CC1`, the IC50 in series [1] came to 0.291 µM; in series [2], 0.035 µM; in series [6], 0.796 µM.

Regarding `Cc1noc(C)c1-c1cc(C(N)=O)c2c3cc(C(C)(C)O)ccc3n(Cc3ccccc3)c2c1`, the figures for the IC50 in series [1], in [2] and in series [6] were 0.023 µM, 0.0045 µM and 0.095 µM, respectively. Besides, in series [5], the Papp was 74.9 ×10⁻⁶ cm/s.

As for `Cc1noc(C)c1-c1cc(C(N)=O)c2c3ccc(C(C)(C)O)cc3n([C@H](c3ccccc3)C3CCOCC3)c2c1`, the concentration in [7] peaked (Cmax) at 0.4 µM. Also, the results for the IC50 in series [1], in series [2] and in series [6] were 0.0009 µM, 0.001 µM and 0.0031 µM, respectively. Further, the remaining at 10 min, 0.5 µM in series [3] is 52%; in series [4] it was 20%. This molecule showed an AUC(0-t) at 7 h in [8] of 1 µM·h. The Papp in [5] came out at 67.1 ×10⁻⁶ cm/s. For the same molecule, the Papp A→B in series [12] was determined as 3.4 ×10⁻⁶ cm/s. Further, the Papp B→A in [13] worked out at 36.4 ×10⁻⁶ cm/s.

In turn, `Cc1noc(C)c1-c1cc(C(N)=O)c2c3ccc(C(C)(C)O)cc3n(Cc3ccccc3)c2c1` gave a Cmax in series [7] of 7.1 µM. For the same molecule, the IC50 in [1] stood at 0.0062 µM; in [6], 0.035 µM. For the same molecule, the remaining at 10 min, 0.5 µM was 58% in series [3] and 62% in series [4]. The molecule also registered an AUC(0-t) at 7 h in [8] of 27.1 µM·h. For the same molecule, the Papp in series [5] is 84.9 ×10⁻⁶ cm/s. Further, the Papp A→B in [12] is 7.6 ×10⁻⁶ cm/s. Also, in series [13], the Papp B→A stood at 20.2 ×10⁻⁶ cm/s.

Regarding `Cc1noc(C)c1-c1cc(C(N)=O)c2[nH]c3cc(C(=O)N4CCOCC4)ccc3c2c1`, the values for the IC50 in [1], in series [2] and in series [6] were 1.16 µM, 0.712 µM and greater than 2.5 µM, respectively.

Consider `Cc1noc(C)c1-c1cc(C(N)=O)c2c3cc(C(=O)N4C[C@@H](C)O[C@@H](C)C4)ccc3n(Cc3ccccc3)c2c1`, for which the half-maximal inhibitory concentration (IC50) in series [1] amounted to 0.013 µM; in series [2] it was 0.0042 µM; in series [6], 0.038 µM. Also, the values for the remaining at 10 min, 0.5 µM in series [3] and in [4] were 9% and 19%, respectively. In addition, in series [5], the Papp is 80.9 ×10⁻⁶ cm/s.

On to `Cc1noc(C)c1-c1cc(C(N)=O)c2c(c1)c1ccc(C(=O)N3C[C@@H](C)O[C@@H](C)C3)cc1n2CC1CC1`, for which the IC50 was 0.051 µM in series [1], 0.023 µM in [2] and 0.525 µM in series [6].
